Data as given in US12503426B2, “Synthetic derivatives of oleoyl-lysophosphatidylinositol (oleoyl-LPI) and uses thereof” (LIPOVEXA SRL, priority 2017, dated 2025).

Key:
CREB = CREB phosphorylation by Western blot; format: cell-based; settings: H89 10 μM pre-treatment or oleoyl-LPI in control cells
Description: When cell cultures reached 80-90%, media were removed and cells were washed twice with 1×PBS. The cells were lysed in 150 μl (for one well of a 6 well plate) of Triton X-100 lysis buffer, containing phosphatase inhibitor cocktail (1:1000) (Sigma Aldrich, UK) and protease inhibitor (1:1000, Sigma Aldrich, UK). Cells were detached with scrapers and lysate were collected and centrifuged at 10,000 rpm, 4° C. for 5 minutes. The supernatant was then transferred to a 1.5 ml microcentrifuge tube and used for protein quantification. Cell lysates were stored at −20° C. for longer storage. All lysates were prepared on ice.
Non-specific antibody binding was prevented by incubating the nitrocellulose membrane in 5% milk in PBS-0.05% Tween-20 (v/v) for 30 minutes on a rotating plate. The membrane was then washed in PBS-0.05% Tween-20 (v/v) and then incubated with the primary antibody diluted in PBS-0.05% Tween-20 (v/v) on a rotating plate overnight at 4° C. After 24 hours, the membrane was washed 5× for 5 minutes with PBS-0.05% Tween-20 (v/v), and then incubated on a rotating plate with the appropriate secondary antibody for 1 hour at room temperature. […]

NCI-H716 cells = assay: GLP-1 secretion by NCI-H716 cells (Examples 2-8); format: cell-based, human; settings: NCI-H716 cells, inhibitor 1 hour before oleoyl-LPI (PD98059 50 μM; H89 10 μM)
Description: NCI-H716 cells were maintained in 75 cm^2 tissue culture flasks (Corning) in RPMI 1640 media containing 2.0 mM L-glutamine, 1.5 g/L sodium bicarbonate, 10 mM HEPES buffer, 1.0 mM sodium pyruvate, and 4.5 g/L glucose and supplemented with 10% FBS at a 37° C. and 5% CO2. When plating for experiment, cell adhesion and endocrine differentiation were initiated by growing cells in dishes coated with growth factor reduced Matrigel diluted at the ratio of 1:2 (Becton Dickinson, Bedford, MA) in high-glucose DMEM, 10% FBS, 2 mM glutamine, 100 IU/ml penicillin, and 100 μg/ml streptomycin as described previously by De Bruine, a P., Dinjens, W. N., van der Linden, E. P., Pijls, M. M., Moerkerk, P. T., & Bosman, F. T. (1993) The American Journal of Pathology, Vol 142(3), pp 773-782, the disclosure of which is incorporated herein in its entirety by reference.
(§1) Approximately 80,000 Glutag cells were plated in poly-L-lysine-coated 24-well culture plates and grown to about 80% confluence. NCI-H716 cells were seeded on growth factor reduced Matrigel™ (Becton Dickinson, Bedford, MA) in DMEM medium, supplemented with 10% FBS the day before the experiment. For NCI-H716 cells, approximately 25,000 cells were needed for this secretion experiment in order to have good stimulation with lower basal GLP-1 secretion. In brief, Glutag and NCI-H716 cells were washed twice and then incubated for 2 h with FBS-free DMEM containing 1% (M:C) alone (negative control), 10 μM forskolin as positive control (Sigma-Aldrich), or with different concentrations of Oleoyl-LPI. M:C was used as a solvent to prepare stock solutions of fatty acid derivatives and inhibitors. For secretion experiments, medium and cells were collected separately.
(§2) In separate studies, GLUTag or NCI-H716 cells were pre-treated for 1 hour with medium alone (1% DMSO, negative control), PD98059 (50 μM; Sigma Chemical Co.), H89 (10 μM; Santa Cruz) followed by treatment with oleoyl-LPI (20 μM), OEA (10 μM), AR231453(1 μM), PMA (10 μM) or forskolin (10 μM, positive control) in the presence of inhibitors, as appropriate, for about 2 h. Medium GLP-1 secretion was calculated as total GLP-1 content of medium normalised for the basal secretion of the control.
(§3) In order to investigate the role of different LPI species in enteroendocrine cells, murine (Glutag) and human (NCI-H716) L-cells were stimulated with the following different species of LPI: Arachidonyl-LPI, Stearoyl-LPI, Heptadecenoyl-LPI and oleoyl-LPI, as well as with OEA and LPC. Experiments were performed in duplicate, n=4 and the level of total GLP-1 was measured by ELISA.

Glutag cells = assay: GLP-1 secretion by Glutag cells; format: cell-based, murine; settings: Glutag cells, inhibitor 1 hour before oleoyl-LPI (PD98059 50 μM; H89 10 μM)
Description: Glutag cells were maintained in low glucose DMEM (Sigma) (1 g/L) containing 2.0 mM L-glutamine, 1.0 mM sodium pyruvate and supplemented with 10% FBS, 100 IU/ml penicillin, 100 μg/ml streptomycin at a 37° C. and 5% CO2.
as §1, §2, §3

[1] = test system: Glutag and NCI-H761 cells; assay: Dose response of GLP-1 release at different glucose concentrations; format: cell-based
Description: Panels A and B show results of dose response of GLP-1 release in different glucose concentration of 5 mM (panel A) and 10 mM (panel B). The dose response of GLP-1 released was normalised of number of cells measured in parallel. Glutag and […] cells were incubated with vehicle alone, oleoyl-LPI, OEA, LPC forskolin (10 μM) and PMA (1 μM) as positive control for 2 hours. Results were normalised as percentage of cell treated with vehicle (control). For panels A and B data are shown as means±SEM of n=3 from independent experiments performed in duplicates. Student t-test: *p<0.05, **P<0.01. Panel C show results of dose response of GLP-1 release in a glucose concentration of 20 mM.
as §1
To determine the effect of glucose in oleoyl-LPI induced GLP-1 secretion, the inventors conducted dose-response experiment in the presence of 5 mM and 10 mM glucose in the secretion medium with the results outlined in FIG. 2A and FIG. 2B.

[2] = test system: colonic cells of the GI tract obtained from guinea pig; assay: Ex vivo GLP-1 biosynthesis and secretion, guinea pig GI tract cells; format: cell-based; settings: Cavia porcellus; ex vivo incubation 2 hours, quadruplicates
Description: To test for this, a pregnant guinea pig was anesthetized with isoflurane and sacrificed via intra-cardial injection of pentobarbital. Colon and rectum were quickly collected and intraluminal content washed out with ice-cold HBSS. After a thorough cleansing from the faecal material, and gentle scraping of the internal mucosa, the tissue was minced into 3 to 5-millimetre pieces and resuspended into 50 ml of ice cold HBSS. Pellet was spun down and washed again in 50 ml of ice-cold HBSS. Supernatant was carefully removed, and the epithelial fragments were then resuspended for 30 minutes at 37° C. into a 5 ml solution of HEPES 25 mM, collagenase-P 1 mg/ml in HBSS, pH 7.4 at 37° C.
The tissue was then pelleted and resuspended further for about 30 to 40 additional minutes at 37° C. within a 10 ml solution of 1 mg/ml collagenase-P as above.
After the digestion, about 40 ml of pre-warmed DMEM complete media was added (FBS 10%, glucose 4.5 g/L, glutamine 4 mM, sodium pyruvate 1 mM, HEPES 25 mM, sodium bicarbonate 3.7 g/L, Pen/Strep 1× and Ciprofloxacin 10 μg/ml pH 7.4 at 37° C.). Crypts and individual cells were isolated with a […] nylon strainer, spun down at 200 g for 5 minutes, resuspended into 10 ml of DMEM complete media and plated into 20 wells of a 24-well plate coated with a 3D gel of 3 mg/ml Matrigel (BD, Biosciences, Oxford, UK). After one day of incubation at 37° C. 5% CO2 in a humidified incubator, cells were washed with 500 μl of warm HBSS, and treated with 250 μl DMEM serum free (Complete medium without FBS) additioned with KR-62436 10 μg/ml and individually the following drugs or compounds: Forskolin and IBMX (20 μM each), oleoyl-LPI, and the two oleoyl-LPI analogs and/or derivatives ps297b (prepared as described in example 13) and ps316a (prepared as described in example 22) were all tested in quadruplicate at 20 μM.
After a 2-hour long incubation at 37 C 5% CO2, the supernatants were collected on ice, and quickly stored at […]. Active GLP-1 levels (7-37 amide and 7-36) were quantified on 50 μl of supernatant with an ELISA commercial kit (EMD Millipore). DMSO was used as a negative control, the combination of Forskolin and IBMX was included as positive control activators GLP-1. GLP-1 levels measured were standardized against the DMSO control.
The EC50 levels each one of oleoyl-LPI, compound ps297b and compound ps316a were also measured in quadruplicates at the conclusion of the 2 hour incubation. Guinea pig cells obtained as described above were also incubated with […] in quadruplicates and subjected to 2-hour long incubation at 37 C 5% CO2 as described above and EC50 levels measured.

human GPR119 = target: T1, human GPR119 (Homo sapiens, UniProt Q8TDV5); assay: cAMP assay in GPR119 transfected COS-7 cells; format: cell-based; settings: COS-7 cells expressing human GPR119, agonists 30 min; read-out: EC50, production of cAMP
T1 construct: expressed in transfected cells; host or cells: COS-7 cells, calcium phosphate transfection
T1 sequence (Q8TDV5 1-335): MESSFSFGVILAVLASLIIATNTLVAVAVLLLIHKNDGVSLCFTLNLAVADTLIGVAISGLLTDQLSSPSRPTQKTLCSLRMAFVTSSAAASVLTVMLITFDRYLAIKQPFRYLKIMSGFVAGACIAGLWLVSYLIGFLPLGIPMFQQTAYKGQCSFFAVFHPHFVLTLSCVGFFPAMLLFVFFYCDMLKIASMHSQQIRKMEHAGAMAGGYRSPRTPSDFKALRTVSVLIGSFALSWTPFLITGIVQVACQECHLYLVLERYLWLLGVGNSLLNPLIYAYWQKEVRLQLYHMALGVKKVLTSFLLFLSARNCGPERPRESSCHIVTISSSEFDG
Description: COS-7 cells were cultured in Dulbecco's modified Eagle medium (DMEM) 1885 supplemented with 10% FBS, […] L-glutamine and 180 IU/ml penicillin+[…] streptomycin (Pen Strep) (Life Technologies, CA, USA) at 37° C. and 10% CO2. The COS-7 cells were transiently transfected with GPR119 or pcDNA by the calcium phosphate transfection method for 5 hours in 37° C., 10% CO2 as described by Kissow H, Hartmann B, Hoist J J, Viby N E, Hansen L S, Rosenkilde M M, Hare K J, Poulsen S S. Regul Pept. 2012. Vol: 179(1-3), pp 91-100; the disclosure of which is incorporated herein in its entirety by way of reference.
COS-7 cells were transfected with about 40 μg GPR119 DNA or pcDNA3 per […] flask. One day after transfection, the cells were seeded out (about 35,000 cell/well) in a 96 well white plate (Perkin Elmer, Massachusetts, USA). The cells were washed twice the following day and incubated for 30 min, at 37° C. with HBS and 1 mM IBMX (Sigma Aldrich, USA). Agonists were added for 30 min in the assay medium. The Hithunter® cAMP XS+ (DiscoveRx, Fremont, USA) was carried out by following the manufacturer's instructions.
Accordingly, the work outlined in this example evaluates whether activation of GPR119 by oleoyl-LPI in enteroendocrine L cell affect the proglucagon gene expression by monitoring the CREB activity. […]

Compound	phosphorylation of CREB (CREB)	oleoyl-LPI induced GLP-1 secretion with inhibitor pre-treatment (NCI-H716 cells)	oleoyl-LPI induced GLP-1 secretion with inhibitor pre-treatment (Glutag cells)	GLP-1 secretion ([1]; 5 mM glucose, 50 μM, 2 hours, percentage of vehicle control)	GLP-1 secretion, dose response ([1]; 10 mM glucose)	EC50 [2]	EC50 (human GPR119)
O=S(=O)(NCCNC/C=C/c1ccc(Br)cc1)c1cccc2cnccc12 [H89]	inhibited	observable reduction in GLP-1 secretion	observable reduction in GLP-1 secretion	–	–	–	–
CCCCCCCC/C=C\CCCCCCCC(=O)NCCO [OEA, Oleoylethanolamide]	–	–	–	178±15%	dose-dependently stimulate GLP-1 secretion in similar manner of oleoyl-LPI	30.7 µM	0.422 µM
